The target of the test is T1, Progesterone receptor (Homo sapiens, UniProt P06401).
T1 sequence (P06401 whole entry): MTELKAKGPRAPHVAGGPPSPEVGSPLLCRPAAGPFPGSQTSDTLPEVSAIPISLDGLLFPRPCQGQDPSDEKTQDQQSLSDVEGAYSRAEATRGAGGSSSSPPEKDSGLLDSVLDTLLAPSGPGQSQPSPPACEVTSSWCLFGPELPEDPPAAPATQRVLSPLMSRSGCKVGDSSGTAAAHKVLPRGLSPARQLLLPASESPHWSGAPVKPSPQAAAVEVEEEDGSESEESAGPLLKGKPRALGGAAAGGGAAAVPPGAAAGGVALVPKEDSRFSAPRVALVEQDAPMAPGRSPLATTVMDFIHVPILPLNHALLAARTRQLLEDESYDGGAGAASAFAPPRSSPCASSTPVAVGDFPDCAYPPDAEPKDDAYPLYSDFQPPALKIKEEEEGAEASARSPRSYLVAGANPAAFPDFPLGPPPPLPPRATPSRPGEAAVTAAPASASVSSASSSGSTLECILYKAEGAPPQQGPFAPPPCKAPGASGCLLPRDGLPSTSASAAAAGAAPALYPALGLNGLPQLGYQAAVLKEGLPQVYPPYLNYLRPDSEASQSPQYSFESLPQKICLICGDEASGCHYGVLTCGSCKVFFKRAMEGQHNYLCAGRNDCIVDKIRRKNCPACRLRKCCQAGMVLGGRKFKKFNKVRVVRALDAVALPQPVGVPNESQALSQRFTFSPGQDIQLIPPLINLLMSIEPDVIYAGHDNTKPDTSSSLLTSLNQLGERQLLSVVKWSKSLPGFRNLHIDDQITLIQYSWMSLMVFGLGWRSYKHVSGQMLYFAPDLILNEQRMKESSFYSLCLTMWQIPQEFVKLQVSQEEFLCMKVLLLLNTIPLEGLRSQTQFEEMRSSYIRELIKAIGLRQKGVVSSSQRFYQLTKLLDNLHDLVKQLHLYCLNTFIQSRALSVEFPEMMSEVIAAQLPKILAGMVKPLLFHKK
Description: Displacement of [3H]progesterone from Progesterone receptor. (Displacement assays read how much labelled ligand stays bound in the presence of the test substance.)

For the molecule `CC1=CC(C)(C)Nc2ccc3c(c21)COc1c(F)cc(F)cc1-3` [7,9-difluoro-2,2,4-trimethyl-2,5-dihydro-1H-chromeno[3,4-f]quinoline], the Ki (usually a measure of affinity in units of concentration, obtained from inhibition or displacement) is 0.013 µM. This lies in the double-digit nanomolar range.
Then `CC1=CC(C)(C)Nc2ccc3c(c21)Cc1c(F)cccc1-3` [10-Fluoro-1,3,3-trimethyl-4,11-dihydro-3H-indeno[2,1-f]quinoline], with 0.015 µM.

The values above are taken from BindingDB's records for doi:10.1021/jm060234e (Scientific Computing, 2006).
